{"source": "paper PMC10349806", "about": "(Nature Communications, 2023)", "key": {"PfCRT variant E232A": {"target": "T1, PfCRT variant E232A (Plasmodium falciparum, UniProt Q9N623, A220S/E232A/I356T/K76T/M74I/N326S/N75E/Q271E/R371I)", "T1 sequence (Q9N623 1-424 M74I/N75E/K76T/A220S/E232A/Q271E/N326S/I356T/R371I)": "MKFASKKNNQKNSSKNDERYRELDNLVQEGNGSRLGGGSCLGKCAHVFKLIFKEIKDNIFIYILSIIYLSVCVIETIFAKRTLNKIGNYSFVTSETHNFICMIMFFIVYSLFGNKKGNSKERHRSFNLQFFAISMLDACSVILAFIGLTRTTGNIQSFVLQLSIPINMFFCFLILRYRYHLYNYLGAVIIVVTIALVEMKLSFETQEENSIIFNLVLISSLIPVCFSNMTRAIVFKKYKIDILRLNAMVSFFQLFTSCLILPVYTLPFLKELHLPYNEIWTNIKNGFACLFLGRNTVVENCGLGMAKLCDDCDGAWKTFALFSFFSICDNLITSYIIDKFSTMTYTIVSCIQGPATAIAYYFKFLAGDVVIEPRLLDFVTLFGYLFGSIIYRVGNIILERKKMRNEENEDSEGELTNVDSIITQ", "experiment": "CQ uptake assay, oocytes expressing E232A", "assay_type": "cell-based", "experimental": "(§1) Site-directed mutagenesis of PfCRT^Dd2 was performed as described using the megaprimer method with overlap extension[21],[54]. The primer pairs used are listed in Supplementary Table 6. Please note that a codon-optimized and oocyte-adapted version of PfCRT^Dd2 was used[22] (Supplementary Fig. 16). The resulting DNA fragment was cloned into the SP64T expression vector and verified by sequencing.\n(§2) Oocytes were obtained as described previously. Briefly, adult (>2 years old) female X. laevis frogs (NASCO) were anesthetized in a cooled solution of ethyl 3-amino benzoate methanesulfonate (0.1%, w/v), followed by a surgical removal of parts of the ovary. The ovary lobes were carefully dissected and small pieces of oocytes were incubated in Ca^2+-free ND96 buffer (96 mM NaCl, 2 mM KCl, 1 mM MgCl2 buffered with 5 mM HEPES/NaOH, pH 7.5) supplemented with collagenase D (0.1%, w/v; Roche), BSA (0.5%, w/v), and 9 mm Na2HPO4 at 18 °C for 14-16 h while gentle shaking. After incubation, the oocytes were carefully washed several times with ND96 buffer (96 mM NaCl, 2 mM KCl, 1.8 mM CaCl2, 1 mM MgCl2 buffered with 5 mM HEPES/NaOH, pH 7.5) supplemented with 100 mg l^−1 gentamycin). Defolliculated and healthy-looking stage V-VI oocytes were manually selected for RNA microinjection. The RNA was generated as following: The codon-optimized sequences of PfCRT variants were cloned into the pSP64T expression vector. After vector linearization using the restriction endonucleases BamHI or SalI (New England Biolabs), transcription was performed using the in vitro SP6 mMessage mMachine Kit (Ambion)[34]. The obtained RNA was kept at −80 °C and diluted with nuclease-free water to a concentration of 0.6 μg μl^−1. Precision-bore glass capillary tubes (3.5-inch glass capillaries; Drummond Scientific Co.) were pulled on a vertical puller (P-87 Flaming/Brown micropipette puller, Sutter Instrument Co.), graduated, and placed on a microinjector (Nanoject II Auto-Nanoliter Injector, Drummond Scientific Co.). 50 nl of nuclease-free water alone (control oocytes) or 50 nl of 0.6 μg μl^−1 RNA were injected under stereomicroscopic control. Injected oocytes were incubated for 46–72 h at 18 °C with twice-daily buffer changes before usage in experiments.\nDrug uptake assays were performed as described previously[21],[22],[24],[34]. […] The direction of radio-labeled drug transport is here from the mostly acidic extracellular solution (pH 4.5 or 6.0, as indicated) into the oocyte cytosol (pH ∼ 7.2), which corresponds to the efflux of drug from the acidic digestive vacuole (pH 5.2) into the parasite cytoplasm (pH 7.2). The topology of PfCRT in the oolemma is such that both the N- and C-terminus face the extracellular milieu[3],[22]. In the parasite, the N- and C-terminus face the lumen of the digestive vacuole. […] For determination of the amount of drug uptake for each oocyte, the reaction medium was removed and the oocytes were washed three times with 2 ml of ice-cold ND96 buffer. Each oocyte was individually transferred to a scintillation vial containing 5% sodium dodecyl sulfate (200 μl) for lysis. […] Oocytes that were injected with water instead of RNA were analyzed in parallel, representing the uptake of a drug by diffusion and/or endogenous permeation pathways. […] The specific PfCRT-mediated uptake was determined by subtracting the corresponding background value measured in water-injected oocytes from that of PfCRT-expressing oocytes. […]"}, "PfCRT variant E207C": {"tested_on": "PfCRT variant E207C", "experiment": "CQ uptake assay, oocytes expressing E207C", "assay_type": "cell-based, Plasmodium falciparum", "experimental": "as §1, §2\nDrug uptake assays were performed as described previously[21],[22],[24],[34]. […] The direction of radio-labeled drug transport is here from the mostly acidic extracellular solution (pH 4.5 or 6.0, as indicated) into the oocyte cytosol (pH ∼ 7.2), which corresponds to the efflux of drug from the acidic digestive vacuole (pH 5.2) into the parasite cytoplasm (pH 7.2). The topology of PfCRT in the oolemma is such that both the N- and C-terminus face the extracellular milieu[3],[22]. In the parasite, the N- and C-terminus face the lumen of the digestive vacuole. CQ uptake kinetics were performed by incubating oocytes in ND96 buffer adjusted to a pH of 4.5, 5.0, 5.5, or 6.0 and supplemented with 50 nM [^3H]CQ and one of 7 different CQ concentrations (10 µM, 50 µM, 100 µM, 200 µM, 300 µM, 400 µM, 500 µM CQ). The reaction was stopped at the 60 min time point, which is in the linear uptake range[22],[34] (Supplementary Fig. 17). For determination of the amount of drug uptake for each oocyte, the reaction medium was removed and the oocytes were washed three times with 2 ml of ice-cold ND96 buffer. Each oocyte was individually transferred to a scintillation vial containing 5% sodium dodecyl sulfate (200 μl) for lysis. The radioactivity of each sample was measured using a liquid scintillation analyzer Tri-Carb 4910 TR (PerkinElmer). Oocytes that were injected with water instead of RNA were analyzed in parallel, representing the uptake of a drug by diffusion and/or endogenous permeation pathways. The resulting value represents the “background“ level of drug accumulation in oocytes (in-depth discussion in[22]). […]"}, "[1]": {"details": "E207C, 50 µM CQ, 1 h, mean ± SEM"}}, "note": "Where “and” joins values, the source holds several entries; their conditions need not be identical. Identical values can stand only once.", "data": [{"smiles": "CCN(CC)CCCC(C)Nc1ccnc2cc(Cl)ccc12", "note": "(centres unmarked) [CQ, chloroquine]", "values": [{"measurement": "Activity at pH 4.5", "setting": "PfCRT variant E232A; E232A, 50 µM CQ, 1 h, mean ± SEM", "result": "1.07 ± 0.12", "unit": "pmol h-1 oocyte-1"}, {"measurement": "R-value", "setting": "PfCRT variant E232A; E232A, CQ transport at pH 4.5 / pH 6.0", "result": "0.65 ± 0.06"}, {"measurement": "E232A transport activity pH 4.5", "setting": "PfCRT variant E232A; pH 4.5, single replicates, Fig 1d left", "result": "1.05 pmol oocyte-1 h-1 and 1.32 pmol oocyte-1 h-1 and 1.01 pmol oocyte-1 h-1 and 0.62 pmol oocyte-1 h-1 and 1.37 pmol oocyte-1 h-1"}, {"measurement": "E232A R-value", "setting": "PfCRT variant E232A; pH 4.5 vs pH 6.0, Fig 1d left", "result": "0.65 and 0.81 and 0.48 and 0.80"}, {"measurement": "E232A transport activity pH 6.0", "setting": "PfCRT variant E232A; pH 6.0, single replicates, Fig 1d left", "result": "1.62 pmol oocyte-1 h-1 and 1.63 pmol oocyte-1 h-1 and 2.09 pmol oocyte-1 h-1 and 1.28 pmol oocyte-1 h-1 and 1.71 pmol oocyte-1 h-1"}, {"measurement": "Activity at pH 4.5", "setting": "PfCRT variant E207C; [1]", "result": "1.30 ± 0.11", "unit": "pmol h-1 oocyte-1"}, {"measurement": "Activity at pH 6.0", "setting": "PfCRT variant E207C; [1]", "result": "1.53 ± 0.16", "unit": "pmol h-1 oocyte-1"}, {"measurement": "R-value", "setting": "PfCRT variant E207C; E207C, CQ transport at pH 4.5 / pH 6.0", "result": "0.86 ± 0.09"}, {"measurement": "E207C transport activity pH 4.5", "setting": "PfCRT variant E207C; pH 4.5, individual replicates, Fig 6b", "result": "0.95 pmol oocyte-1 h-1 and 1.34 pmol oocyte-1 h-1 and 1.57 pmol oocyte-1 h-1 and 1.33 pmol oocyte-1 h-1"}, {"measurement": "E207C transport activity pH 6.0", "setting": "PfCRT variant E207C; pH 6.0, individual replicates, Fig 6b", "result": "1.15 pmol oocyte-1 h-1 and 2.00 pmol oocyte-1 h-1 and 1.64 pmol oocyte-1 h-1 and 1.34 pmol oocyte-1 h-1"}, {"measurement": "E207C R-value", "setting": "PfCRT variant E207C; ratio of activity pH 4.5 / pH 6.0", "result": "0.83 and 0.67 and 0.96 and 0.99"}]}]}
